Results on one compound are retold here after patent US8067456B2 (AEterna Zentaris GmbH, priority 2004, dated 2011).

Values after ≈ are worked out from the molar mass of the structure shown.

One data set addresses T1, LHRH receptor (Rattus norvegicus, UniProt P30969).
T1 construct: rat pituitary cells which naturally strongly express the LHRH receptor; from tissue; host or cells: rat pituitary cells (membrane preparation)
T1 sequence (P30969 1-327): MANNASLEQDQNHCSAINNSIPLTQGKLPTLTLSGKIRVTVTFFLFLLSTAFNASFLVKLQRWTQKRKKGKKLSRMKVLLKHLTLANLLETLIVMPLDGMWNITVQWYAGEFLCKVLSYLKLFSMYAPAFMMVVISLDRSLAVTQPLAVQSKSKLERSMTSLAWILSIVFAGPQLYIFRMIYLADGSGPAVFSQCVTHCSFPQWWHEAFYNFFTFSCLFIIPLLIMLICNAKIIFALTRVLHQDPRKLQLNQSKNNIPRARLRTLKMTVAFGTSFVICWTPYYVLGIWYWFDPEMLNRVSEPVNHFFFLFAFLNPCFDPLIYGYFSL
The data set can be described thus: LHRH receptor-ligand binding assay (membrane preparations from rat pituitary cells). As to conditions: competition with 0.05 nM [125I][D-Trp6]-LHRH, 90 min, 4° C., rat pituitary membranes. How it is done:
Heterologous competition experiments were carried out using membrane preparations from rat pituitary cells which naturally strongly express the LHRH receptor. The ligand used in this case was [^125I][D-Trp^6]-LHRH in a concentration of 0.05 nM. Unlabeled [D-Trp^6]-LHRH was used in a concentration of 1 μM, or the test substance was used in the desired concentration, for competition. After an incubation time of 90 minutes at 4° C., the bound ligand was measured by scintillation (Halmos et al., Proc. Natl. Acad. Sci. USA, 1996, 93, 2398).
The result obtained was the percentage proportion of bound ligand in the presence of the competitor related to the specifically bound proportion of the control (see result for selected compounds in Table 3). EC50 values were calculated by nonlinear regression analysis of the competition plots.

Data set [1] relates to LHRH-stimulated LH secretion from rat pituitary cells. Description: Inhibition of LHRH-induced LH secretion from rat pituitary cells in vitro. The data set is classed as cell-based. The following applies: LHRH 10 nM, 3 hours. As to the method:
The LH concentration in cell culture supernatants was measured using the rat luteinizing hormone (rLH) enzyme immunoassay (EIA) system ELISA (RPN 2562) from Amersham Pharmacia Biotech. All other chemicals used were from commercial sources in the highest purity available.
Juvenile male Wistar rats (Harlan Winkelmann, Germany) were sacrificed by decapitation, and the pituitaries were removed and taken up in Hanks' buffer (HBSS) with 0.3% BSA and 10 mM HEPES (pH 7.4). Pituitaries from 20 rats were required to carry out one experiment. The cells of the anterior lobe of the pituitary were separated from the remaining tissue by incubation in Hanks' buffer with 10 mM HEPES (pH 7.4), 0.3% BSA, 1 mg/ml hyaluronidase (type VIII), 1 mg/ml soybean trypsin inhibitor, 10 μg/ml DNAsel and 1 mg/ml papain at 37° C. for 30 minutes A sterile Pasteur pipette was used to disperse the cells, and they were subsequently pelleted by centrifugation. The cells were seeded in a density of 2.5×10^5 cells/well of a collagen-coated 48-well plate (Becton Dickinson) in DMEM medium (Invitrogen Life Technologies, Germany) with 10% fetal calf serum (FCS; Invitrogen Life Technologies, Germany), 10 mill nonessential amino acids and 10 mill Pen/Strep (penicillin/streptomycin).
The medium was changed after incubation at 37° C., 5% CO2 and 95% humidity for 48 h. The medium was replaced by LHRH-containing (10 nM) medium or medium with LHRH (10 nM) and test substance in the concentration indicated (table). After a further incubation for 3 hours, the cell supernatant was harvested and frozen at −20° C. The LH content was determined by means of ELISA in triplicate determination in accordance with the manufacturer's (Amersham Pharmacia Biotech) instructions.
In the following table, “% Inhibition” describes the quotient of LHRH-stimulated LH secretion with (“LH (ng/ml)” and without the addition of the test substance. The values originate from different, independent experiments.

A further data set deals with castrated rats. The data set can be described thus: LH concentration suppression in the plasma of castrated rats. The data set is classed as in vivo, rat. As to conditions: 100 mg/kg oral in Solutol HS15/1,2-propane-diol (3:1). As to the method:
The LH concentration in the plasma of castrated rats was measured using the rat luteinizing hormone (rLH) enzyme immunoassay (EIA) system ELISA (RPN 2562) from Amersham Pharmacia Biotech or of LH RIA-AH R002 rats; from Biocode-Hycel, Liege, Belgium. All other chemicals used were from commercial sources in the highest purity available.
10 days before the start of the test, male Sprague Dawley rats (Harlan Winkelmann, Germany) weighing 190-220 g were anesthetized with ether and castrated and provided with a silicone catheter for permanent blood sampling.
At the start of the test, before administration of the substance, blood samples were taken and the LH level determined. The substance was then administered orally in the desired concentration. The number of animals used in each group was 8. At the stated times, further blood samples were taken. The blood was collected in heparinized sample tubes on ice, and the plasma was obtained by centrifugation at 3000 g for 10 minutes. The plasma samples were stored at −20° C. until the LH concentration was measured by ELISA or RIA. The LH concentration was determined by an ELISA or RIA in duplicate determination in accordance with the manufacturer's (Amersham Pharmacia Biotech; Biocode-Hycel) instructions.
All the other data points for each individual animal were calculated as relative concentration compared with the LH concentration before treatment.

The nature of data set [2]: Saturation solubility in water. The data set is classed as physicochemical. As to conditions: water, thermodynamic from solid; maximum of 1% DMSO added, HPLC UV. How it is done:
The saturation solubility in water was determined in accordance with the following description: to initiate dissolving of the substances and to improve the wetting of the samples, a maximum of 1% DMSO was added. The content was checked by using an HPLC UV method.

A short description of data set [3]: Metabolic stability in rat liver microsomes. The class given is in vitro ADME. The following applies: 1 μM, 37° C., NADPH. How it is done: (§1) The metabolic stability in relation to liver microsomes (species human, rat) was determined in accordance with the following description: the substances were incubated at a test concentration of 1 […] An HPLC MS/MS method was subsequently used to quantify the unmetabolized amount of starting compound relative to 100%.
(Liver microsomes are a subcellular fraction often used to study metabolism.)

A short description of data set [4]: Metabolic stability in human liver microsomes. The following applies: 1 μM, 37° C., NADPH. The class given is in vitro ADME. How it is done:
as §1

The compound `CCC(C)[C@H](NC(=O)OCc1ccccc1)C(=O)N[C@]1(C(=O)N[C@H](C(N)=S)C(C)CC)CCc2[nH]c3c(Cl)cc(Cl)cc3c2C1` (stereo partly drawn) [Compound 7, benzyl {(S)-1-[(R)-6,8-dichloro-3-((S)-2-methyl-1-thiocarbamoylbutylcarbamoyl)-2,3,4,9-tetrahydro-1H-carbazol-3-ylcarbamoyl]-2-methylbutyl}carbamate] registered an EC50 on LHRH receptor of 6.9 nM. For the same compound, in data set [1] (Rattus norvegicus, test substance 3.3 × 10^−8 M, read-out: % Inhibition), the inhibition at 0.033 µM came to 83%. The compound also registered an inhibition at 0.0033 µM in data set [1] (Rattus norvegicus, test substance 3.3 × 10^−9 M) of 43%. Also, the “LH (ng/ml) ± SD” value in data set [1] (test substance 3.3 × 10^−8 M) came out at 79.9 ± 15.0 ng/mL; in data set [1] (test substance 3.3 × 10^−9 M), 194.0 ± 13.2 ng/mL. Moreover, the “Relative LH concentration (%) (averages ± SEM compared with the concentration before treatment)” value in the data set on castrated rats (time 0 h) is reported as 91.8 ± 19.1%; in the data set on castrated rats (time +4 h), 19.6 ± 8.9%; in the data set with castrated rats (time +6 h), 10.1 ± 3.2%; with castrated rats (time +24 h) it was 65.1 ± 13.9%; with castrated rats (time +48 h), 110.6 ± 33.0%; in the data set on castrated rats (time +72 h) it was 268.4 ± 93.0%. Also, the “Relative LH concentration (%) (averages ± SEM compared with the concentration before treatment)” value is 110.8 ± 12.2% in the data set with castrated rats (time −2 h (before treatment)) and 97.4 ± 15.3% in the data set on castrated rats (time −4 h (before treatment)). Also, in data set [2], the concentration in solution (solubility) came to 54.6 µg/mL (≈ 80.9 µM). The recovery at 1 μM in data set [3] came to 78%; in data set [4], 65%.

As usually defined, the EC50 is the concentration at which the effect is half-maximal. Lower therefore signals higher potency in that assay. One may read the inhibition as the change of the read-out against control, counted positive when it falls. As usually defined, the solubility is the concentration that dissolves in the medium under given conditions. A high value points to a readily soluble substance.
